Read-outs that look alike come from different tables or passages of the source. Where a SMILES comes first, the peptide text is derived from it. Where no end group is shown, it is not given here. [ ]: non-standard residue; d: D form. Ala(indol-4-yl) = N[C@@H](Cc1cccc2[nH]ccc12)C(=O)O; NMeR = CN[C@@H](CCCNC(=N)N)C(=O)O; Tle = CC(C)(C)[C@H](N)C(=O)O; dOrn = NCCC[C@@H](N)C(=O)O; Orn = NCCC[C@H](N)C(=O)O; Dab = NCC[C@H](N)C(=O)O
Tests used:
hNTS2 = target: T1, hNTS2 (Homo sapiens, UniProt O95665); test: Radioligand competition binding with [3H]NT, membranes of CHO-K1 cells expressing hNTS2; conditions: for hNTS2 Selectivity: hNTS2 over hNTS1
T1 construct: expressed in transfected cells; host or cells: CHO-K1
T1 sequence (O95665 whole entry): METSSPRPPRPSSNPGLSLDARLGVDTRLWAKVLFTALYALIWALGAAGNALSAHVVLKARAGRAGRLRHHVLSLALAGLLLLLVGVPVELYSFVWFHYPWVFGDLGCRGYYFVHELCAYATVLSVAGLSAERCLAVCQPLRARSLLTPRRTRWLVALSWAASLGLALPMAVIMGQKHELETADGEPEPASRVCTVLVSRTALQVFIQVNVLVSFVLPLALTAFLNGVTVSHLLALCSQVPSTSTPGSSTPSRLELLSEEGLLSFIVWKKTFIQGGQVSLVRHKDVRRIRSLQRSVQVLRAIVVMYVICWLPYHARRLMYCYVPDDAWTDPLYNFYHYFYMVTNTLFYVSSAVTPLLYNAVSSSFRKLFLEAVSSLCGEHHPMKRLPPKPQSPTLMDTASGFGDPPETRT

hNTS1 = target: T2, hNTS1 (Homo sapiens, UniProt P30989); test: Radioligand competition binding with [3H]NT, membranes of CHO-K1 cells expressing hNTS1; conditions: for hNTS1 Selectivity: Table 2, hNTS1 over hNTS2
T2 construct: expressed in transfected cells; host or cells: CHO-K1
T2 sequence (P30989 whole entry): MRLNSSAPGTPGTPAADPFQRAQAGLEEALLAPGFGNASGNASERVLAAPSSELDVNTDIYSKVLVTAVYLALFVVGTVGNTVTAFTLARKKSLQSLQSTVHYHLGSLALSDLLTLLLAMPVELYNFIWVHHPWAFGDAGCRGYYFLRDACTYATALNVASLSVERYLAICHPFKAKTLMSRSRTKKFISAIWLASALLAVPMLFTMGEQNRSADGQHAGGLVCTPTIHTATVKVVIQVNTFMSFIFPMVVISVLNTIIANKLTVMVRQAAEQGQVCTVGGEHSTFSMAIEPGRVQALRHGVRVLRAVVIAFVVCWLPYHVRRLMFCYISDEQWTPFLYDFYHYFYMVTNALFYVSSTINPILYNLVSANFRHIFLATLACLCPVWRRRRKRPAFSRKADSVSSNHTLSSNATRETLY
Method: CHO-K1 cells that had been stably transfected separately with the hNTS1 or hNTS2 genes were cultured in 150 mm (500 cm^2) Petri plates with 35 ml of Dulbecco's modified Eagle's medium containing 100 μM minimal essential medium nonessential amino acids (Life Technologies, Inc.) supplemented with 5% (v/v) FetalClone II bovine serum product (Hyclone Labs, Logan, Utah). […] The cellular pellet (in Tris-HCl buffer) was stored at […] until the radioligand binding was performed.
For use in binding assays, crude membrane preparations were prepared by centrifugation of the cellular pellet at 35,600×g for 10 min. The supernatant was decanted and discarded, and the cellular pellet was resuspended in 1 ml of Tris-HCl buffer followed by homogenization with a Brinkmann Polytron at setting 5.5 for 15 s. Centrifugation was repeated as above, the supernatant was decanted and discarded, and the cellular pellet was resuspended in 1 ml of Tris-HCl buffer followed by homogenization. Centrifugation was repeated a third time, the supernatant was discarded, and the final cellular pellet was suspended in 0.5-2.5 ml of Tris-HCl buffer. Protein concentration of the membrane preparation was estimated by the method of Lowry et al. using bovine serum albumin as a standard.
Incubation was at 20° C. for 40 min. The assay was routinely terminated by addition of ice-cold 0.9% NaCl (5×1.5 ml), followed by rapid filtration through a GF/B filter strip that had been pretreated with 0.2% or 2% polyethyleneimine. Details of binding assays have been described previously. […] Data were analyzed using the LIGAND program.

[1] = Table 2, read-out: hNTS2 Geometric Mean ∀ SEM (equilibrium dissociation constant Kd)
[2] = read-out: hNTS1 Geometric Mean ∀ SEM (equilibrium dissociation constant Kd)

| Compound | Kd (hNTS2) [nM] | hNTS2 Selectivity (hNTS2; Table 2) | Kd (hNTS1) [nM] | hNTS1 Selectivity (hNTS1) | Kd (hNTS2; [1]) [nM] | Kd (hNTS1; [2]) [nM] | Kd at hNTS2 in words (hNTS2; text b54) | binding / Kd at hNTS1 in words (hNTS1; text b54) | Kd (hNTS2; text b54, read-out: Kd at hNTS2) [nM] | Kd (hNTS2; text, read-out: Kd at hNTS2) [nM] | Kd (hNTS1; text, read-out: Kd at hNTS1) [nM] |
| --- | --- | --- | --- | --- | --- | --- | --- | --- | --- | --- | --- |
| RRGYIL [NT07, [Gly^10]NT(8-13)] | 970 ± 40 | 1.4 | 1380 ± 50 | 0.7 | – | – | – | – | – | – | – |
| CC[C@H](C)[C@H](NC(=O)[C@H](Cc1ccc(O)cc1)NC(=O)[C@@H]1CCCN1C(=O)[C@@H](CCCNC(=N)N)NC(=O)[C@@H](N)CCCCN)C(=O)N[C@@H](CC(C)C)C(=O)O [NT16, [L-Lys^8,D-Arg^9]NT(8-13)] (H-K[dR]PYIL-OH; N-terminus and C-terminus assumed) | – | 0.8 | – | 1.2 | 39.6 ± 0.6 | 33 ± 6 | – | – | – | – | – |
| CC[C@H](C)[C@H](NC(=O)[C@@H](Cc1ccc(O)cc1)NC(=O)[C@@H]1CCCN1C(=O)[C@H](CCCN)NC(=O)[C@@H](N)CCCNC(=N)N)C(=O)N[C@@H](CC(C)C)C(=O)O [NT36, [L-Orn^9,D-Tyr^11]NT(8-13)] (H-R[Orn]P[dY]IL-OH; N-terminus and C-terminus assumed) | – | – | – | – | 1160 ± 20 | – | micromolar Kd's | no detectable binding | – | – | – |
| CC[C@H](C)[C@H](NC(=O)[C@H](Cc1ccc(O)cc1)NC(=O)[C@@H]1CCCN1C(=O)[C@H](CCCN)NC(=O)[C@@H](N)CCCN)C(=O)N[C@@H](CC(C)C)C(=O)O [NT25, [L-Orn^8,L-Orn^9]NT(8-13)] | – | 0.8 | – | 1.3 | 3.9 ± 0.2 | 3 ± 0.3 | – | – | – | – | – |
| RRPYLL [NT09, [L-Leu^12]NT(8-13)] | 2.4 ± 0.3 | 2.9 | 7.2 ± 0.6 | 0.3 | – | – | – | – | – | – | – |
| CC(C)C[C@H](NC(=O)[C@@H](NC(=O)[C@H](Cc1c[nH]c2ccccc12)NC(=O)[C@@H]1CCCN1C(=O)[C@@H](CCCN)NC(=O)[C@@H](N)CCCNC(=N)N)C(C)(C)C)C(=O)O [NT77T, [D-Orn^9,L-Trp^11,tert-Leu^12]NT(8-13)] (H-R[dOrn]PW[Tle]L-OH; N-terminus and C-terminus assumed) | – | 4.8 | – | 0.2 | 320 ± 20 | 1530 ± 80 | – | – | – | – | – |
| KRPYIL [NT17, [L-Lys^8]NT(8-13)] | – | 0.2 | – | 4.0 | 1.2 ± 0.2 | 0.25 ± 0.02 | – | – | – | – | – |
| CC[C@H](C)[C@H](NC(=O)[C@H](Cc1ccc(O)cc1)NC(=O)[C@@H]1CCCN1C(=O)[C@@H](CCCN)NC(=O)[C@H](N)CCCN)C(=O)N[C@@H](CC(C)C)C(=O)O [NT28, [D-Orn^8,D-Orn^9]NT(8-13)] | – | 0.3 | – | 3.2 | 1900 ± 100 | 600 ± 20 | – | – | – | – | – |
| CN[C@@H](CCCNC(=N)N)C(=O)N[C@H](CCCN)C(=O)N1CCC[C@H]1C(=O)N[C@@H](Cc1cccc2[nH]ccc12)C(=O)N[C@H](C(=O)N[C@@H](CC(C)C)C(=O)O)C(C)(C)C [NT78, [N-methyl-Arg^8,D-Orn^9,L-neo-Trp^11,tert-Leu^12]NT(8-13)] (H-[NMeR][dOrn]P[Ala(indol-4-yl)][Tle]L-OH; C-terminus assumed) | – | 3.4 | – | 0.3 | 380 ± 40 | 1300 ± 400 | – | – | – | – | – |
| CC[C@H](C)[C@H](NC(=O)[C@H](Cc1ccc(O)cc1)NC(=O)[C@@H]1CCCN1C(=O)[C@H](CCN)NC(=O)[C@@H](N)CCN)C(=O)N[C@@H](CC(C)C)C(=O)O [NT31, [DAB^8,DAB^9]NT(8-13)] (H-[Dab][Dab]PYIL-OH; N-terminus and C-terminus assumed) | – | 0.1 | – | 9.1 | 19.5 ± 0.7 | 2.1 ± 0.3 | – | – | – | – | – |
| CC[C@H](C)[C@H](NC(=O)[C@H](Cc1ccc(O)cc1)NC(=O)[C@@H]1CCCN1C(=O)[C@H](N)CCCN)C(=O)N[C@@H](CC(C)C)C(=O)O [NT35, [D-Orn^9]NT(9-13)] (H-[dOrn]PYIL-OH; N-terminus and C-terminus assumed) | – | 0.1 | – | 19.1 | – | – | – | – | 10000 | 10500 | 550 |

Reference: patent US20110263507A1 (priority 2007, published 2011)
